# Test results published in PubChem BioAssay AID1919003 (Molecular Pharmacology Branch, DTP, NCI, 2023).
# System: 786-0 complex spheroids with HUVEC/MSC, growth % test/control
# Test: Anticancer human tumor 786-0 cell line growth inhibition [AhR];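 also: compound exposure lasted seven days before the read-out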
# Details: for IC50: curve of first compound; for viability, T/C: stronger effect = lower value
# Method in brief: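 Agents were dosed in half-log steps down from roughly clinical Cmax, or from 10 microM where Cmax was unknown, alone and with AhR antagonists. Read-out: percent test/control growth of tumor spheroids containing HUVEC and MSC stromal cells.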
smiles,measurement,setting,value
CC(C)CC(NC(=O)C(Cc1ccccc1)NC(=O)c1cnccn1)B(O)O (stereo not given) + Cc1ccccc1N=Nc1ccc(NC(=O)c2ccnn2C)c(C)c1,IC50,second compound 0.1 µM,18.3 nM
same,IC50,second compound 0.316 µM,17.9 nM
same,IC50,second compound 1 µM,17.4 nM
same,IC50,second compound 3.16 µM,17.6 nM
same,IC50,second compound 10 µM,17.2 nM
same,"viability, T/C","second compound 0.1 µM, first compound 0.000949 µM",96.9%
same,"viability, T/C","second compound 0.1 µM, first compound 0.003 µM",103%
same,"viability, T/C","second compound 0.1 µM, first compound 0.00949 µM",103%
same,"viability, T/C","second compound 0.1 µM, first compound 0.03 µM",11.9%
same,"viability, T/C","second compound 0.1 µM, first compound 0.0949 µM",0.85%
same,"viability, T/C","second compound 0.1 µM, first compound 0.3 µM",0.51%
same,"viability, T/C","second compound 0.316 µM, first compound 0.000949 µM",103%
same,"viability, T/C","second compound 0.316 µM, first compound 0.003 µM",110%
same,"viability, T/C","second compound 0.316 µM, first compound 0.00949 µM",98.6%
same,"viability, T/C","second compound 0.316 µM, first compound 0.03 µM",10.4%
same,"viability, T/C","second compound 0.316 µM, first compound 0.0949 µM",4.46%
same,"viability, T/C","second compound 0.316 µM, first compound 0.3 µM",0.43%
same,"viability, T/C","second compound 1 µM, first compound 0.000949 µM",106%
same,"viability, T/C","second compound 1 µM, first compound 0.003 µM",107%
same,"viability, T/C","second compound 1 µM, first compound 0.00949 µM",92.4%
same,"viability, T/C","second compound 1 µM, first compound 0.03 µM",11.7%
same,"viability, T/C","second compound 1 µM, first compound 0.0949 µM",0.98%
same,"viability, T/C","second compound 1 µM, first compound 0.3 µM",2%
same,"viability, T/C","second compound 3.16 µM, first compound 0.000949 µM",98.9%
same,"viability, T/C","second compound 3.16 µM, first compound 0.003 µM",96.1%
same,"viability, T/C","second compound 3.16 µM, first compound 0.00949 µM",104%
same,"viability, T/C","second compound 3.16 µM, first compound 0.03 µM",7.1%
same,"viability, T/C","second compound 3.16 µM, first compound 0.0949 µM",0.92%
same,"viability, T/C","second compound 3.16 µM, first compound 0.3 µM",0.45%
same,"viability, T/C","second compound 10 µM, first compound 0.000949 µM",104%
same,"viability, T/C","second compound 10 µM, first compound 0.003 µM",106%
same,"viability, T/C","second compound 10 µM, first compound 0.00949 µM",80.3%
same,"viability, T/C","second compound 10 µM, first compound 0.03 µM",21.8%
same,"viability, T/C","second compound 10 µM, first compound 0.0949 µM",1.78%
same,"viability, T/C","second compound 10 µM, first compound 0.3 µM",1.25%
COc1cc(Nc2ncc3c(n2)-c2ccc(Cl)cc2C(c2c(F)cccc2OC)=NC3)ccc1C(=O)O + Cc1ccccc1N=Nc1ccc(NC(=O)c2ccnn2C)c(C)c1,IC50,second compound 0.1 µM,4130 nM
same,IC50,second compound 0.316 µM,3610 nM
same,IC50,second compound 1 µM,3780 nM
same,IC50,second compound 3.16 µM,4820 nM
same,IC50,second compound 10 µM,5410 nM
same,"viability, T/C","second compound 0.1 µM, first compound 0.0316 µM",98.7%
same,"viability, T/C","second compound 0.1 µM, first compound 0.1 µM",109%
same,"viability, T/C","second compound 0.1 µM, first compound 0.316 µM",117%
same,"viability, T/C","second compound 0.1 µM, first compound 1 µM",84.7%
same,"viability, T/C","second compound 0.1 µM, first compound 3.16 µM",58.3%
same,"viability, T/C","second compound 0.1 µM, first compound 10 µM",30.1%
same,"viability, T/C","second compound 0.316 µM, first compound 0.0316 µM",107%
same,"viability, T/C","second compound 0.316 µM, first compound 0.1 µM",107%
same,"viability, T/C","second compound 0.316 µM, first compound 0.316 µM",133%
same,"viability, T/C","second compound 0.316 µM, first compound 1 µM",91.6%
same,"viability, T/C","second compound 0.316 µM, first compound 3.16 µM",55.1%
same,"viability, T/C","second compound 0.316 µM, first compound 10 µM",28.7%
same,"viability, T/C","second compound 1 µM, first compound 0.0316 µM",108%
same,"viability, T/C","second compound 1 µM, first compound 0.1 µM",109%
same,"viability, T/C","second compound 1 µM, first compound 0.316 µM",121%
same,"viability, T/C","second compound 1 µM, first compound 1 µM",89.2%
same,"viability, T/C","second compound 1 µM, first compound 3.16 µM",55.5%
same,"viability, T/C","second compound 1 µM, first compound 10 µM",30.2%
same,"viability, T/C","second compound 3.16 µM, first compound 0.0316 µM",95.8%
same,"viability, T/C","second compound 3.16 µM, first compound 0.1 µM",98.4%
same,"viability, T/C","second compound 3.16 µM, first compound 0.316 µM",103%
same,"viability, T/C","second compound 3.16 µM, first compound 1 µM",82.3%
same,"viability, T/C","second compound 3.16 µM, first compound 3.16 µM",63.2%
same,"viability, T/C","second compound 3.16 µM, first compound 10 µM",29.2%
same,"viability, T/C","second compound 10 µM, first compound 0.0316 µM",83.3%
same,"viability, T/C","second compound 10 µM, first compound 0.1 µM",85.3%
same,"viability, T/C","second compound 10 µM, first compound 0.316 µM",106%
same,"viability, T/C","second compound 10 µM, first compound 1 µM",91.8%
same,"viability, T/C","second compound 10 µM, first compound 3.16 µM",60.2%
same,"viability, T/C","second compound 10 µM, first compound 10 µM",38.2%
